Results: US20200061076A1, “METHODS OF TREATING LEUKODYSTROPHIES” (Ramot at Tel-Aviv University Ltd., priority 2017, published 2020)

Key:
[1] = test system: Hedgehog signaling pathway; assay: Luciferase activity assay in Shh-LIGHT2 cells (Gli1-controlled Firefly / constitutive Renilla); format: cell-based; details: for Firefly/Renilla luciferase expression (Hedgehog activation): absence of SAG, 24 hours (FIG. 11A); for SAG-induced HH activity (Firefly/Renilla luciferase): presence of SAG at 50 nM, 24 hours (FIG. 11B)
Procedure: Following lysis, luminescence was measured using the Dual Luciferase assay kit (Promega) followed by Firefly/Renilla luciferase ratio calculation for each treatment. Shown is average Firefly/Renilla luciferase activity ±SD of 3 independent experiments. *p<0.04. […] RNA was extracted from brains of P18 and P21 Mut and WT mice. cDNA was prepared by reverse transcription and subjected to qPCR using primers specific to Gli1 and GAPDH (SEQ ID NOs: 1-2 and 3-4, respectively). Relative quantity (RQ) was calculated by the ΔΔCt method. * p<0.02 [vs control (FIG. 11A) or vs SAG treated cells (FIG. 11B)].
Shh-LIGHT2 cells were seeded at a density of 10,000 cells per well in a 96-wells plate in growing medium. 24 hours post-plating the cells were incubated for additional 24 hours with the tested compounds in low serum media (0.5%) without G418 and Zeocin. Following lysis, Firefly and Renilla luminescence was measured using the Dual Luciferase assay kit (Promega) and a Veritas microplate luminometer (Turner Biosystems).
To test if p8C10 (H5), p8G7 (H9) and p9E6 (H15) compounds that were identified in the screen indeed affect Hedgehog signaling, SHH-lightII cells which stably express an inducible Firefly-Luciferase reporter gene under the control of Gli1 (a read-out of Hedgehog activation) and constitutive Renilla-Luciferase for normalization purposes (Taipale et al. 2000) were used. […] Therefore, p9E6 was identified as an agonist. SHH activation is required for the first steps of oligodendrocyte differentiation, while a subsequent decrease in Hedgehog activity is needed for complete differentiation and myelin production (Bouslama-Oueghlani et al. 2012) and re-myelination (Samanta et al. 2015).

[2] = test system: Mut MEFs; assay: Cell survival assay, Crystal violet staining, Mut MEFs; format: cell-based, mouse; details: for Survival (%) ± SEM Mut MEFs: 24 hours, untreated cells set to 100%
Procedure: Cells were seeded on 96-wells plate at a density of 5000 cells per well. Astrocytes were seeded following coating with 0.001% PDL.

[3] = test system: Mut MEFs; assay: Survival under Tunicamycin-induced ER stress, Crystal Violet, MEFs; details: Mut MEFs, 30 μM, 50 ng/ml Tunicamycin 22 hours (FIG. 20B)
Procedure: Mut MEFs were treated or not for 24 hours with the indicated concentrations of the indicated Sig-1R binders in the presence of 0.1 μg/ml Tunicamycin (Tun) during the last 22 hours. Following, the cells were washed, fixated and stained with Crystal Violet (CV) followed by measurement of absorbance at 570 nm. Shown is average % of CV staining relative to cells not treated with tunicamycin nor Sig-1R binder ±SEM of 3 independent experiments. *p<0.03.
Following, the cells were washed, fixated and stained with Crystal Violet and absorbance at 570 nm was measured. Data is presented relative to cells of the corresponding genotype not treated with p8G5 nor Tunicamycin. Shown is average % of CV staining ±SEM of 3 independent experiments.
Mut MEFs were treated or not for 24 hours with 10, 20 or 30 μM of the indicated Sig-1R binders in the presence of 50 ng/ml Tunicamycin (Tun) during the last 22 hours. Following, the cells were washed, fixated and stained with Crystal Violet (CV) followed by measurement of absorbance at 570 nm. Shown is % of CV staining relative to cells not treated with tunicamycin nor Sig-1R binder ±SEM of 3 independent experiments, *p<0.05.
Mut MEFs were incubated or not with the indicated concentrations of the indicated compounds for 2 hours followed by addition of 50 ng/ml Tunicamycin (Tun) for additional 22 hours, stained with Crystal Violet followed by measurement of absorbance at 570 nm. Shown is average normalized to Tun-treated cells without any compound ±SEM of 3 independent experiments. * not significant; ** p<0.02; *** all values p<0.04.

[4] = test system: Mut MEFs; assay: JC1 staining of intact and damaged mitochondria (mitochondrial membrane potential); format: cell-based, mouse; details: Mut MEFs, 10 μM; for effect on mitochondrial health (JC1, intact and damaged mitochondria): 24 hours (FIG. 14C)
Procedure: Mut MEFs were treated or not for 6 hours with the indicated concentrations of p8G5 (blue), pre084 (purple), or NE-100 (yellow), washed and stained with Hoechst and JC1 for 30 minutes followed by image acquisition using In-Cell-Analyzer-2000. Shown is the % of red/green JC1 integrated intensity per cell relative to that in untreated WT cells of 2-4 independent experiments.
Following, the cells were washed, stained with Hoechst and JC-1 fluorescent dyes for 30 minutes, and subjected to image acquisition using In-Cell-Analyzer-2000. Shown is cellular content of damaged mitochondria (JC1 green channel, red bars), intact mitochondria (JC1 red channel, green bars) and damaged to intact mitochondria ratio (blue bars). Values of control (vehicle treated) cells was set to 100%.
Mut MEFs were treated with the indicated compounds at 10 μM for 24 hours followed by staining with fluorogenic dyes and image-based single-cell analysis. Shown is average effect on ROS level from at least 3-independent experiments ±SEM. […] Mut MEFs were incubated or not for 24 hours with 10 μM of the indicated compound, washed and stained with Crystal Violet. […] Mut MEFs were incubated or not for 24 hours with 10 μM of the indicated compound, washed and stained with JC1 and Hoechst followed by image-based single-cell analysis. Values of untreated cells were set as 100%. Shown is average of at least 3 independent experiments for each parameter compared to its matching control ±SEM. * p<0.05. Putative targets are indicated.
Mut MEFs were incubated or not for 24 hours with 10 μM of the indicated compounds, washed and stained with Hoechst and JC1 followed by image-based single-cell analysis. […] Mut MEFs were incubated or not with the indicated concentrations of the indicated compounds for 2 hours followed by addition of 50 ng/ml Tunicamycin (Tun) for additional 22 hours, stained with Crystal Violet followed by measurement of absorbance at 570 nm.
MEFs were seeded on 1% gelatin-coated 96-wells plate at a density of 5000 cells per well. 24 hours post-plating the cells were incubated with the tested compounds for additional 24 hours. Several DMSO-treated cells (control) were included in each plate at different locations. Following, the cells were stained by addition of fluorogenic dyes for further 30 minutes incubation at 37° C. […] CellROX was used together with Hoechst and CFSE; JC1 was used together with Hoechst. Cells were washed with Hank's balanced salt solution (HBSS) which was used for images acquisition using IN Cell Analyzer 2000 (GE Healthcare, Pitsburgh, Pa., USA). IN Cell Developer Toolbox 1.9.1 software (GE Healthcare) was used for analysis which included cells segmentation using Hoechst and/or CFSE signals. For analysis of JC1 staining, integrated intensity of green and red emissions were used for detection of damaged and intact mitochondria, respectively.

| Structure (SMILES) | Survival (%) ± SEM Mut MEFs ([2]; 10 μM) | Survival (%) ± SEM Mut MEFs ([2]; 20 μM) | Survival (%) ± SEM Mut MEFs ([2]; 30 μM) | further results |
| --- | --- | --- | --- | --- |
| C=CCn1c(-c2cc(OC)c(OC)c(OC)c2)nc2ccccc21 [Hit H5, 1-allyl-2-(3,4,5-trimethoxyphenyl)-1H-benzimidazole] |  |  |  | Firefly/Renilla luciferase expression (Hedgehog activation) [1]: not able to activate the pathway; SAG-induced HH activity (Firefly/Renilla luciferase) [1]: inhibited the SAG-induced HH activity |
| Cc1cc(C)cc(OCCCCCN2CCOCC2)c1 [Hit H8-1, 4-[5-(3,5-dimethylphenoxy)pentyl]morpholine] | 104 ± 2.7% | 103 ± 4.7% | 97 ± 3.9% |  |
| Cc1ccc(OCCCCCN2CCOCC2)cc1C [Hit H8-2, 4-[5-(3,4-dimethylphenoxy)pentyl]morpholine] | 92 ± 4.2% | 94 ± 8.8% | 95 ± 13.1% | cell survival following Tun-induced cell death [3]: most potent effect |
| Cc1cccc(OCCCCCCN2CCOCC2)c1 [Hit H8-3, 4-[6-(3-methylphenoxy)hexyl]morpholine] | 100 ± 7.2% | 96 ± 4.1% | 88 ± 4.5% |  |
| Cc1cccc(OCCCCN2CCOCC2)c1 [Hit H8-4, 4-[4-(3-methylphenoxy)butyl]morpholine] | 92 ± 8.5% | 95 ± 4.2% | 98 ± 5.4% |  |
| Cc1ccc(OCCCCN2CCOCC2)cc1C [Hit H8-5, 4-[4-(3,4-dimethylphenoxy)butyl]morpholine] | 92 ± 1.7% | 100 ± 4.4% | 98 ± 13.8% | cell survival following Tun-induced cell death [3]: most potent effect |
| COc1cccc(OCCCCCN2CCOCC2)c1 [Hit H8-6, 4-[5-(3-methoxyphenoxy)pentyl]morpholine] | 97 ± 5.1% | 92 ± 1.1% | 93 ± 5.2% | cell survival following Tun-induced cell death [3]: most potent effect |
| Clc1cccc(OCCCCCN2CCOCC2)c1 [Hit H8-7, 4-[5-(3-chlorophenoxy)pentyl]morpholine] | 98 ± 5.1% | 91 ± 4.7% | 88 ± 9.7% | mitochondrial health, damaged/intact organelle ratio (JC1) ([4]; 24 hours (FIG. 20A)): at the top of the list; cell survival following Tun-induced cell death [3]: most potent effect |
| CN1CCN(CCCCCOc2ccccc2F)CC1 [Hit H8-8, 1-[5-(2-fluorophenoxy)pentyl]-4-methylpiperazine] | 101 ± 5.6% | 99 ± 11% | 90 ± 3.5% |  |
| O=C(Cc1ccccc1)N1CCN(c2ccccc2F)CC1 [Hit H9, 1-(2-fluorophenyl)-4-(phenylacetyl)piperazine] |  |  |  | Firefly/Renilla luciferase expression (Hedgehog activation) [1]: not able to activate the pathway; SAG-induced HH activity (Firefly/Renilla luciferase) [1]: inhibited the SAG-induced HH activity |
| C=CCn1c(C=Cc2ccccc2)nc2ccccc21 [Hit H15, 1-allyl-2-(2-phenylvinyl)-1H-benzimidazole] |  |  |  | effect on mitochondrial health (JC1, intact and damaged mitochondria) [4]: significant beneficial effect on mitochondrial health; Firefly/Renilla luciferase expression (Hedgehog activation) [1]: able to activate the Hedgehog signaling pathway |
| COc1ccc(OC)c(N=Nc2nc3ccccc3n2C)c1 [Hit H16, 2-[(2,5-dimethoxyphenyl)diazenyl]-1-methyl-1H-benzimidazole] |  |  |  | cell viability / toxicity (crystal violet) ([2]; Mut MEFs, 10 μM, 24 hours (FIG. 14B)): significant decrease in cell viability |
| Cc1cc(-c2ccccc2)nc2cc(C(=O)N3C(C)CCCC3C)nn12 (centres unmarked) [Hit H17, 2-[(2,6-dimethyl-1-piperidinyl)carbonyl]-7-methyl-5-phenylpyrazolo[1,5-a]pyrimidine] |  |  |  | effect on mitochondrial health (JC1, intact and damaged mitochondria) [4]: significant beneficial effect on mitochondrial health |
| CNC1CCC(N(Cc2cccc(-c3ccncc3)c2)C(=O)c2sc3ccccc3c2Cl)CC1 (centres unmarked) [SAG, reference compound] |  |  |  | Survival (%) ± SEM Mut MEFs ([2]; 0.01 μM): 98 ± 2.1%; Survival (%) ± SEM Mut MEFs ([2]; 0.05 μM): 92 ± 3.2%; Survival (%) ± SEM Mut MEFs ([2]; 0.1 μM): 95 ± 2.1%; Survival (%) ± SEM Mut MEFs ([2]; 1 μM): 68 ± 2.7% |
